As a reminder, the Kd is the concentration at which binding is half-saturated. Low readings indicate tighter binding, high ones weaker binding.

This is an account of results in US8084455B2, “Use of a kinase inhibitor for the treatment of particular resistant tumors” (Nerviano Medical Sciences S.r.l., priority 2006, dated 2011).

Changes are numbered by the printed parent chain. Read-outs that look alike come from different tables or passages of the source.

For test [1], the system named is Imatinib-resistant ABL mutants. Conditions: literature; cited from earlier work.
In test [2] the target is T1, Wild-type ABL kinase domain (Homo sapiens, UniProt P00519).
T1 sequence (P00519 229-512): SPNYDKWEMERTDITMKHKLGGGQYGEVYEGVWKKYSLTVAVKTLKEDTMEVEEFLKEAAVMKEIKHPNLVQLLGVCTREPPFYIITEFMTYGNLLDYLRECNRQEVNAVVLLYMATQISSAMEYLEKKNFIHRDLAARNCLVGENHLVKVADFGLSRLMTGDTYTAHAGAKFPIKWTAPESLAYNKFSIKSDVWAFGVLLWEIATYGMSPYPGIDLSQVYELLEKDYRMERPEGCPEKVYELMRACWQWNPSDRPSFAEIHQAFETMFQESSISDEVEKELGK
Conditions: Table 1; displacement of probe 3.1 at 0.12 μM, 10 nM enzyme, average of three experiments.
Procedure: (§1) In all experiments, the fluorescence signal was measured using a Fusion α-FP HT plate reader (Packard). Data analysis was performed using the Dynafit software.
(§2) In particular, titration data were fitted to the following equilibria: Enzyme+probe<==>Complex Enzyme-probe, while displacement data were fitted to the following equilibria: Enzyme+probe<==>Complex Enzyme-probe, Enzyme+Compound<==>Complex Enzyme-Compound, whereby binding of probe and compound on the enzyme are mutually exclusive (pure competitive mechanism).
(§3) The mixture of enzyme and probe was added to the previously diluted compounds. […] In agreement, affinity binding constants (KD) were determined by fitting with a pure competitive mechanism. KD values, are the average of three independent experiments.
(§4) The displacement assay was performed as described before, with 3 μM as the highest inhibitor concentration tested with dilution steps 1:1.5.

For test [3], the target named is T2, Wild-type ABL 0P (unphosphorylated ABL kinase domain) (Homo sapiens, UniProt P00519).
T2 sequence (P00519 229-512): T1 sequence (P00519 229-512)
The conditions noted are these: Table 1; displacement of probe 3.1 at 0.15 μM, 10 nM enzyme, average of three experiments.
Procedure: as §1, §2, §3, §4

The target in test [4] is T3, T315I ABL mutant kinase domain (Homo sapiens, UniProt P00519, T315I).
T3 sequence (P00519 229-512 T315I): T1 sequence (P00519 229-512) with T87I
The conditions noted are these: Table 4; displacement of probe 3.2 at 0.2 μM.

The target of test [5] is T1, Wild-type ABL kinase domain. The conditions noted are these: Table 4; displacement of probe 3.2 at 3.3 μM.
Procedure: as §2, §3
(§5) The applied conditions were the same except for the saturating probe concentration (2, 3.3 and 0.2 μM for ABL wild-type unphosphorylated (0P), wild-type and T315I, respectively) and the probe final concentration (2, 3.3 and 0.2 μM for ABL wild-type unphosphorylated (0P), wild-type and T315I, respectively).
(§6) The displacement assay was performed as described before, with 3 μM as the highest inhibitor concentration tested.
Test [6] has as its target T2, Wild-type ABL 0P (unphosphorylated ABL kinase domain). The conditions noted are these: Table 4; displacement of probe 3.2 at 2 μM.
Procedure: as §2, §3, §5, §6
Test [7] concerns the target T3, T315I ABL mutant kinase domain. The conditions noted are these: Table 1; displacement of probe 3.1 at 0.42 μM, 10 nM enzyme, average of three experiments.

Turning to `Cc1cn(-c2cc(NC(=O)c3ccc(C)c(Nc4nccc(-c5cccnc5)n4)c3)cc(C(F)(F)F)c2)cn1` [AMN107], the “activity against Imatinib-resistant ABL mutants” value in test [1] was “active against the majority”.
Turning to `Nc1ncnc2c1ncn2[C@@H]1O[C@H](COP(=O)(O)OP(=O)(O)OP(O)(O)=S)[C@@H](O)[C@H]1O` [ATPγS], the Kd in test [2] was 9 ± 1.9 µM; in test [3] it was 9.5 ± 3.4 µM; in test [4], 2.61 ± 0.9 µM; in test [5], 4.8 ± 1 µM; in test [6] it was 6.6 ± 1.6 µM; in test [7], 2 ± 0.21 µM.
